{"source": "patent US20230414569A1", "about": "“ORAL CANINE FEED AND METHODS FOR CONTROLLING FLEA INFESTATIONS IN A CANINE” (In the Bowl Animal Health, Inc., priority 2021, published 2023)", "key": {"[1]": {"test": "Plasma levels in dogs given medicated daily feed at different dosage levels (Example 6)", "format": "in vivo, dog", "design": "unit not given here", "source_text": "Methods: A pool of dogs are to be preliminarily infested with ˜50 unfed adult R. sanguineus ticks in order to produce dogs that can suitably sustain a reliable infestation rate, defined as approximately 25% of attached ticks being live at the end of a 72-hour period. The 24 dogs with the highest live attached tick counts are to be selected for inclusion in the study. The 18 dogs with the highest live attached tick counts are to be randomly assigned to one of a control group and 2 treatment groups. The 6 dogs with the next highest live attached tick counts are to be assigned to a third treatment group.\nThe dogs are to be housed individually during the study period and are to have ad libitum access to water.\nEach dog in a treatment group (test groups 2-4) is to receive a medicated daily feed from study days 0-49. The medicated daily feed is to be offered to the dogs for 1 hour on each of days 0-49 according to test groups listed in TABLE 7.\nBlood is to be drawn at 0, 1, 3, 6, 10, 24, 48, 96, 168, 240 and 336 hours after the initial dose of isoxazoline is administered."}, "[2]": {"test": "Plasma concentration in dogs after daily oral liquid dosing (Example 1)", "format": "in vivo", "conditions": "dog plasma, individual canines, 0.75 mg/kg/day oral days 0-29; Day -1 (pre-dose)", "description": "Each dog in the treatment group is to receive by mouth a liquid formulation of isoxazoline. The dosage of 0.75 mg/kg is to be administered to the dogs on each of days 0-29.\nDogs in the control group are not to receive isoxazoline or any other flea control treatment. Each dog in the treatment group is to be offered its daily ration (dry food) and the individual doses of liquid formulation are to be administered after the individual dog has eaten at least 25% of its total daily ration. After receiving the dose of isoxazoline, the dogs are to be allowed to continue eating. This mimics incorporating the isoxazoline in feed. Each dog in the treatment group and the control group is to be experimentally infested with 100 unfed adult fleas on test days 2, 5, 12, 20 and 35. Comb counts for live adult fleas are to be conducted on days 4, 7, 14, 21 and 37."}}}
{"molecule": "O=C(CNC(=O)c1sc(C2=NO[C@@](c3cc(Cl)c(F)c(Cl)c3)(C(F)(F)F)C2)c2c1CCC2)NCC(F)F", "note": "[Mivorilaner, 3-[(5S)-5-(3,5-dichloro-4-fluorophenyl)-5-(trifluoromethyl)-4,5-dihydroisoxazol-3-yl]-N-[2-[(2,2-difluoroethyl)amino]-2-oxoethyl]-5,6-dihydro-4H-cyclopenta[c]thiophene-1-carboxamide]", "values": [{"measurement": "average plasma concentration of isoxazoline", "setting": "[1]; Group 2 - 106 mg/kg feed (anticipated 1 mg/kg daily), 1 hr", "result": 49.98}, {"measurement": "average plasma concentration of isoxazoline", "setting": "[1]; Group 2 - 106 mg/kg feed (anticipated 1 mg/kg daily), 3 hr", "result": 292.00}, {"measurement": "average plasma concentration of isoxazoline", "setting": "[1]; Group 2 - 106 mg/kg feed (anticipated 1 mg/kg daily), 6 hr", "result": 539.00}, {"measurement": "average plasma concentration of isoxazoline", "setting": "[1]; Group 2 - 106 mg/kg feed (anticipated 1 mg/kg daily), 10 hr", "result": 505.40}, {"measurement": "average plasma concentration of isoxazoline", "setting": "[1]; Group 2 - 106 mg/kg feed (anticipated 1 mg/kg daily), 24 hr", "result": 458.60}, {"measurement": "average plasma concentration of isoxazoline", "setting": "[1]; Group 2 - 106 mg/kg feed (anticipated 1 mg/kg daily), 48 hr", "result": 771.83}, {"measurement": "average plasma concentration of isoxazoline", "setting": "[1]; Group 2 - 106 mg/kg feed (anticipated 1 mg/kg daily), 96 hr", "result": 1570.50}, {"measurement": "average plasma concentration of isoxazoline", "setting": "[1]; Group 2 - 106 mg/kg feed (anticipated 1 mg/kg daily), 168 hr", "result": 2156.67}, {"measurement": "average plasma concentration of isoxazoline", "setting": "[1]; Group 2 - 106 mg/kg feed (anticipated 1 mg/kg daily), 240 hr", "result": 3003.33}, {"measurement": "average plasma concentration of isoxazoline", "setting": "[1]; Group 2 - 106 mg/kg feed (anticipated 1 mg/kg daily), 336 hr", "result": 3290.00}, {"measurement": "average plasma concentration of isoxazoline", "setting": "[1]; Group 3 - 106 mg/kg feed (anticipated 1 mg/kg daily), 1 hr", "result": 40.41}, {"measurement": "average plasma concentration of isoxazoline", "setting": "[1]; Group 3 - 106 mg/kg feed (anticipated 1 mg/kg daily), 3 hr", "result": 264.83}, {"measurement": "average plasma concentration of isoxazoline", "setting": "[1]; Group 3 - 106 mg/kg feed (anticipated 1 mg/kg daily), 6 hr", "result": 467.50}, {"measurement": "average plasma concentration of isoxazoline", "setting": "[1]; Group 3 - 106 mg/kg feed (anticipated 1 mg/kg daily), 10 hr", "result": 419.17}, {"measurement": "average plasma concentration of isoxazoline", "setting": "[1]; Group 3 - 106 mg/kg feed (anticipated 1 mg/kg daily), 24 hr", "result": 435.17}, {"measurement": "average plasma concentration of isoxazoline", "setting": "[1]; Group 3 - 106 mg/kg feed (anticipated 1 mg/kg daily), 48 hr", "result": 781.83}, {"measurement": "average plasma concentration of isoxazoline", "setting": "[1]; Group 3 - 106 mg/kg feed (anticipated 1 mg/kg daily), 96 hr", "result": 1596.67}, {"measurement": "average plasma concentration of isoxazoline", "setting": "[1]; Group 3 - 106 mg/kg feed (anticipated 1 mg/kg daily), 168 hr", "result": 2406.67}, {"measurement": "average plasma concentration of isoxazoline", "setting": "[1]; Group 3 - 106 mg/kg feed (anticipated 1 mg/kg daily), 240 hr", "result": 3026.67}, {"measurement": "average plasma concentration of isoxazoline", "setting": "[1]; Group 3 - 106 mg/kg feed (anticipated 1 mg/kg daily), 336 hr", "result": 3516.67}, {"measurement": "average plasma concentration of isoxazoline", "setting": "[1]; Group 4 - 318 mg/kg feed (anticipated 3 mg/kg daily), 1 hr", "result": 143.75}, {"measurement": "average plasma concentration of isoxazoline", "setting": "[1]; Group 4 - 318 mg/kg feed (anticipated 3 mg/kg daily), 3 hr", "result": 846.50}, {"measurement": "average plasma concentration of isoxazoline", "setting": "[1]; Group 4 - 318 mg/kg feed (anticipated 3 mg/kg daily), 6 hr", "result": 1265.67}, {"measurement": "average plasma concentration of isoxazoline", "setting": "[1]; Group 4 - 318 mg/kg feed (anticipated 3 mg/kg daily), 10 hr", "result": 1198.17}, {"measurement": "average plasma concentration of isoxazoline", "setting": "[1]; Group 4 - 318 mg/kg feed (anticipated 3 mg/kg daily), 24 hr", "result": 1021.17}, {"measurement": "average plasma concentration of isoxazoline", "setting": "[1]; Group 4 - 318 mg/kg feed (anticipated 3 mg/kg daily), 48 hr", "result": 2011.67}, {"measurement": "average plasma concentration of isoxazoline", "setting": "[1]; Group 4 - 318 mg/kg feed (anticipated 3 mg/kg daily), 96 hr", "result": 3928.33}, {"measurement": "average plasma concentration of isoxazoline", "setting": "[1]; Group 4 - 318 mg/kg feed (anticipated 3 mg/kg daily), 168 hr", "result": 6461.67}, {"measurement": "average plasma concentration of isoxazoline", "setting": "[1]; Group 4 - 318 mg/kg feed (anticipated 3 mg/kg daily), 240 hr", "result": 8696.67}, {"measurement": "average plasma concentration of isoxazoline", "setting": "[1]; Group 4 - 318 mg/kg feed (anticipated 3 mg/kg daily), 336 hr", "result": 11600.00}, {"measurement": "Mivorilaner Concentration", "setting": "[2]", "result": "BLQ"}]}
